In patent publication US12643886B2 (Ontario Institute for Cancer Research (OICR), priority 2021, dated 2026):

What was measured:
Format in all cases: biochemical
NUAK2 (h) = target: T1, NUAK2 (h) (Homo sapiens, UniProt Q9H093); assay: NUAK2 enzymatic assay (radiometric, Eurofins); conditions: full-length recombinant enzyme
T1 construct: This assay was done radiometrically using full-length, recombinant enzyme; purchased Eurofins
T1 sequence (Q9H093 1-628): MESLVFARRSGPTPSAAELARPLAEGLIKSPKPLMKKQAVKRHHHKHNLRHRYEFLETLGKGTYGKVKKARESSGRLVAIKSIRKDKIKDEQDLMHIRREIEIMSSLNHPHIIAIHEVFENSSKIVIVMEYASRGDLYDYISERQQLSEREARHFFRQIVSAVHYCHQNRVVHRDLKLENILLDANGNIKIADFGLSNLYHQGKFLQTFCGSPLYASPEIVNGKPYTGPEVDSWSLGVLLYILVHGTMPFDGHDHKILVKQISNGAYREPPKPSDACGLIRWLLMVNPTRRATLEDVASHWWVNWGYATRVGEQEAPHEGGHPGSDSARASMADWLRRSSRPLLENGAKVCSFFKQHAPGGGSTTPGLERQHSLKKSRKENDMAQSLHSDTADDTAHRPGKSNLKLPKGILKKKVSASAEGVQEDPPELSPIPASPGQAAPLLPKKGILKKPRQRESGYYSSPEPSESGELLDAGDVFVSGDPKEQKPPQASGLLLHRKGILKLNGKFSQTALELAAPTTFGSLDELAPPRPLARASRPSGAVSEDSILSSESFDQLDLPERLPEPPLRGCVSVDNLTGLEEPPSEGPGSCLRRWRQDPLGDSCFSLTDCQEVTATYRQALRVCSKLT
Protocol: (§1) To identify small molecule NUAK inhibitors, a biochemical NUAK2 enzymatic assay were outsourced to Eurofins. This assay was done radiometrically using full-length, recombinant enzyme. NUAK2 (h) was incubated with 8 mM MOPS pH 7.0, 0.2 mM EDTA, 300 μM […], 10 mM magnesium acetate and […] (specific activity and concentration as required). The reaction was initiated by the addition of the Mg/ATP mix. After incubation for 40 minutes at room temperature, the reaction was stopped by the addition of phosphoric acid to a concentration of 0.5%. 10 μL of the reaction was then spotted onto a P30 filtermat and washed four times for 4 minutes in 0.425% phosphoric acid and once in methanol prior to drying and scintillation counting. Compounds were routinely counter-screened against Aurora A and NUAK1. The results are shown in Table 1 where IC50's are reported in the following ranges: A: 0.1-10 nM; B: 11-100 nM; C: 101-1000 nM; D: >1000 nM for the compounds of Formula (I)

NUAK1 = target: T2, NUAK1 (Homo sapiens, UniProt O60285); assay: Counter-screen against NUAK1
T2 sequence (O60285 1-661): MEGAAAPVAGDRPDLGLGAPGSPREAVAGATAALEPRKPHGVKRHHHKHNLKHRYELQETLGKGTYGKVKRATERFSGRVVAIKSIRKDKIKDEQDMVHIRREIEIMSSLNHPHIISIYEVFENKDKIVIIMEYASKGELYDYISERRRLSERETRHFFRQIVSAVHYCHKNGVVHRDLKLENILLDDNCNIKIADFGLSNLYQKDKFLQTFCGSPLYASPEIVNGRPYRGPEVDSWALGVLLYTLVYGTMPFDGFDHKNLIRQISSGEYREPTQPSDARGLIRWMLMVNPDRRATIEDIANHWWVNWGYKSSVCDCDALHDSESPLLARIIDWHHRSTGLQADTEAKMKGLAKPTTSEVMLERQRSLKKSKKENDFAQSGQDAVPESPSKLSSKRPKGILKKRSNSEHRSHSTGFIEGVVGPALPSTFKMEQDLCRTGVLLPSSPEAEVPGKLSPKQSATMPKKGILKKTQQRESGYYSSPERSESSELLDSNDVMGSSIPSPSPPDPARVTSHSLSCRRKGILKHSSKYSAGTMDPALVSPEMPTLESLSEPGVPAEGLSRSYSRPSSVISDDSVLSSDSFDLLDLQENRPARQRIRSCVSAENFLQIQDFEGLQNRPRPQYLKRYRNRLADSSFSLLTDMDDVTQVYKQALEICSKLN
Protocol: as §1

Aurora A = target: T3, Aurora A (Homo sapiens, UniProt O14965); assay: Counter-screen against Aurora A; conditions: read-out: AUR-A (IC50)
T3 sequence (O14965 1-403): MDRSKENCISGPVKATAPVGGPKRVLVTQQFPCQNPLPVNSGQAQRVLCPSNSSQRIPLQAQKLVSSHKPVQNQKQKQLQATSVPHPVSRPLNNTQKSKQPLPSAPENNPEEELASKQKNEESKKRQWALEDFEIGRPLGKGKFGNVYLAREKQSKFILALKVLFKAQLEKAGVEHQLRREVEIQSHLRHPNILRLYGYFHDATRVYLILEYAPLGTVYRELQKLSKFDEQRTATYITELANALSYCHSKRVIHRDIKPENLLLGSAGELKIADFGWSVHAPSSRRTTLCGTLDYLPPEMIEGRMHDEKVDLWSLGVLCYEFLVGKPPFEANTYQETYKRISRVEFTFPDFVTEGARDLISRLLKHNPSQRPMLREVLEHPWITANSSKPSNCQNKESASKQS
Protocol: as §1

IC50 (NUAK2 (h)) | IC50 (NUAK1) | IC50 (Aurora A) | Compound
0.1 to 10 nM | 11 to 100 nM | 101 to 1000 nM | COc1c(Nc2ncc(C(F)(F)F)c(Nc3cccc4c3C(=O)NC4)n2)ccc(N2CCCN(C)CC2)c1F [Compound I-38, 7-((2-((3-fluoro-2-methoxy-4-(4-methyl-1,4-diazepan-1-yl)phenyl)amino)-5-(trifluoromethyl)pyrimidin-4-yl)amino)isoindolin-1-one]
11 to 100 nM | 11 to 100 nM | 11 to 100 nM | COc1c(Nc2ncc(C(F)(F)F)c(Nc3cccc4c3C(=O)NC4)n2)ccc(N2CCC(N3CCNCC3)CC2)c1F [Compound I-39, 7-((2-((3-fluoro-2-methoxy-4-(4-(piperazin-1-yl)piperidin-1-yl)phenyl)amino)-5-(trifluoromethyl)pyrimidin-4-yl)amino)isoindolin-1-one]
0.1 to 10 nM | 11 to 100 nM | 101 to 1000 nM | O=C1NCc2cccc(Nc3nc(Nc4ccc(N5CCC(N6CCNCC6)CC5)cc4OC(F)F)ncc3C(F)(F)F)c21 [Compound I-40, 7-((2-((2-(difluoromethoxy)-4-(4-(piperazin-1-yl)piperidin-1-yl)phenyl)amino)-5-(trifluoromethyl)pyrimidin-4-yl)amino)isoindolin-1-one]
11 to 100 nM | 101 to 1000 nM | 101 to 1000 nM | CN1CCN(c2ccc(Nc3ncc(Cl)c(Nc4cccc5c4C(=O)NC5)n3)c(OC(F)(F)F)c2)CC1 [Compound I-41, 7-((5-chloro-2-((4-(4-methylpiperazin-1-yl)-2-(trifluoromethoxy)phenyl)amino)pyrimidin-4-yl)amino)isoindolin-1-one]
11 to 100 nM | 101 to 1000 nM | 101 to 1000 nM | O=C1NCc2cccc(Nc3nc(Nc4ccc(N5CCNCC5)cc4OC(F)F)ncc3F)c21 [Compound I-42, 7-((2-((2-(difluoromethoxy)-4-(piperazin-1-yl)phenyl)amino)-5-fluoropyrimidin-4-yl)amino)isoindolin-1-one]
11 to 100 nM | 101 to 1000 nM | 101 to 1000 nM | COc1cc2c(cc1Nc1ncc(F)c(Nc3cccc4c3C(=O)NC4)n1)CCNC2 [Compound I-43, 7-((5-fluoro-2-((7-methoxy-1,2,3,4-tetrahydroisoquinolin-6-yl)amino)pyrimidin-4-yl)amino)isoindolin-1-one]
0.1 to 10 nM | 101 to 1000 nM | 101 to 1000 nM | COc1cc2c(cc1Nc1ncc(C(F)(F)F)c(Nc3cccc4c3C(=O)NC4)n1)CCNCC2 [Compound I-44, 7-((2-((8-methoxy-2,3,4,5-tetrahydro-1H-benzo[d]azepin-7-yl)amino)-5-(trifluoromethyl)pyrimidin-4-yl)amino)isoindolin-1-one]
11 to 100 nM | 11 to 100 nM | 11 to 100 nM | COc1c(Nc2ncc(C(F)(F)F)c(Nc3cccc4c3C(=O)NC4)n2)ccc(N2CCC(N3CCN(C)CC3)CC2)c1F [Compound I-45, 7-((2-((3-fluoro-2-methoxy-4-(4-(4-methylpiperazin-1-yl)piperidin-1-yl)phenyl)amino)-5-(trifluoromethyl)pyrimidin-4-yl)amino)isoindolin-1-one]
0.1 to 10 nM | 11 to 100 nM | > 1000 nM | COc1cc2c(cc1Nc1ncc(C(F)(F)F)c(Nc3cccc4c3C(=O)NC4)n1)CNCC21CC1 [Compound I-46, 7-((2-((6′-methoxy-2′,3′-dihydro-1′H-spiro[cyclopropane-1,4′-isoquinolin]-7′-yl)amino)-5-(trifluoromethyl)pyrimidin-4-yl)amino)isoindolin-1-one]
11 to 100 nM | 101 to 1000 nM | > 1000 nM | COc1cc2c(cc1Nc1ncc(OC)c(Nc3cccc4c3C(=O)NC4)n1)CCNC2 [Compound I-47, 7-((5-methoxy-2-((7-methoxy-1,2,3,4-tetrahydroisoquinolin-6-yl)amino)pyrimidin-4-yl)amino)isoindolin-1-one]
0.1 to 10 nM | 11 to 100 nM | 101 to 1000 nM | C[C@@H]1CN(C2CCN(c3ccc(Nc4ncc(C(F)(F)F)c(Nc5cccc6c5C(=O)NC6)n4)c(OC(F)F)c3)CC2)C[C@H](C)N1C [Compound I-48, 7-((2-((2-(difluoromethoxy)-4-(4-((3S,5R)-3,4,5-trimethylpiperazin-1-yl)piperidin-1-yl)phenyl)amino)-5-(trifluoromethyl)pyrimidin-4-yl)amino)isoindolin-1-one]
0.1 to 10 nM | 11 to 100 nM | > 1000 nM | C[C@@H]1CN(c2ccc(Nc3ncc(C(F)(F)F)c(Nc4cccc5c4C(=O)NC5)n3)c(OC(F)F)c2)C[C@H](C)N1 [Compound I-49, 7-((2-((2-(difluoromethxoy)-4-((3S,5R)-3,5-dimethylpiperazin-1-yl)phenyl)amino)-5-(trifluoromethyl)pyrimidin-4-yl)amino)isoindolin-1-one]
0.1 to 10 nM | 11 to 100 nM | > 1000 nM | C[C@H]1CN(c2ccc(Nc3ncc(C(F)(F)F)c(Nc4cccc5c4C(=O)NC5)n3)c(OC(F)F)c2)CCN1 [Compound I-50, (S)-7-((2-((2-(difluoromethoxy)-4-(3-methylpiperazin-1-yl)phenyl)amino)-5-(trifluoromethyl)pyrimidin-4-yl)amino)isoindolin-1-one]
0.1 to 10 nM | 0.1 to 10 nM | 0.1 to 10 nM | CN1CCN(c2ccc(Nc3ncc(Cl)c(Nc4cccc5c4C(=O)NC5)n3)cc2)CC1 [Compound I-51, 7-((5-chloro-2-((4-(4-methylpiperazin-1-yl)phenyl)amino)pyrimidin-4-yl)amino)isoindolin-1-one]
11 to 100 nM | 11 to 100 nM | 11 to 100 nM | O=C1NCc2cccc(Nc3nc(Nc4cc5c(cc4Cl)CNCC5)ncc3C(F)(F)F)c21 [Compound I-52, 7-((2-((7-chloro-1,2,3,4-tetrahydroisoquinolin-6-yl)amino)-5-(trifluoromethyl)pyrimidin-4-yl)amino)isoindolin-1-one]
11 to 100 nM | 101 to 1000 nM | > 1000 nM | CN1CCN(c2ccc(Nc3ncc(C(F)(F)F)c(Nc4cccc5c4C(=O)NC5)n3)c(OC(F)(F)F)c2)CC1 [Compound I-53, 7-((2-((4-(4-methylpiperazin-1-yl)-2-(trifluoromethoxy)phenyl)amino)-5-(trifluoromethyl)pyrimidin-4-yl)amino)isoindolin-1-one]
0.1 to 10 nM | 11 to 100 nM | > 1000 nM | O=C1NCc2cccc(Nc3nc(Nc4ccc(N5CCCNCC5)cc4OC(F)F)ncc3C(F)(F)F)c21 [Compound I-55, 7-((2-((4-(1,4-diazepan-1-yl)-2-(difluoromethoxy)phenyl)amino)-5-(trifluoromethyl)pyrimidin-4-yl)amino)isoindolin-1-one]
